Source: US4059622A, “Alkanolamine derivatives” (Imperial Chemical Industries Limited, priority 1970, dated 1977)
Read-outs that look alike come from different tables or passages of the source. Values belong to the compound of their own block, whether it stands above or below them.

Target: T1, cardiac β-receptors (Felis catus, UniProt Q9TST6)
T1 construct: bodyweight of isoprenaline into a chloralose-anaesthetised cat; from tissue; host or cells: heart of the living chloralose-anaesthetised cat (in vivo)
T1 sequence (Q9TST6 whole entry): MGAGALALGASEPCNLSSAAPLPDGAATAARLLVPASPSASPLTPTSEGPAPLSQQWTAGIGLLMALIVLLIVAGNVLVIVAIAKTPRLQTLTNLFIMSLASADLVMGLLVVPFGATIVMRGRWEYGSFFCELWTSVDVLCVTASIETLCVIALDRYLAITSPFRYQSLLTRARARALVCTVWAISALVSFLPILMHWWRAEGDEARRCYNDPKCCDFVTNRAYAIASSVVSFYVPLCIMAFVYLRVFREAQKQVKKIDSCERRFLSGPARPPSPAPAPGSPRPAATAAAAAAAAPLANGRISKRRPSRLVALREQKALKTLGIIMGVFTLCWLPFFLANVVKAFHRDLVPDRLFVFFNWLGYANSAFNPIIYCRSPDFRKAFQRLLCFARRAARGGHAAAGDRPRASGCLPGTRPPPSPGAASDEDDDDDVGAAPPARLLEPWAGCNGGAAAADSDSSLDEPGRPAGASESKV
Assay: inhibition of the tachycardia produced by injection of 0.2 μg/kg isoprenaline into a chloralose-anaesthetised cat (β-adrenergic blocking activity)
Assay type: in vivo
Description: The comparison of the β-adrenergic blocking activity of compounds of the present invention with those of the said prior specification may be carried out using a test standard in the art, namely the inhibition of the tachycardia produced by the injection of 0.2 μg. per kg. bodyweight of isoprenaline into a chloralose-anaesthetised cat.

[1] = ortho-substituted compounds of the invention, chloralose-anaesthetised cat, isoprenaline 0.2 μg/kg, read-out: ED50, Compound B
[2] = other highly active compounds of the invention, chloralose-anaesthetised cat, isoprenaline 0.2 μg/kg, read-out: ED50
[3] = inhibition of tachycardia by 0.2 μg/kg isoprenaline, chloralose-anaesthetised cat, per kg bodyweight, read-out: 50% inhibitory dose (ED50), β-adrenergic blocking activity
[4] = para-substituted prior-art compounds, chloralose-anaesthetised cat, isoprenaline 0.2 μg/kg, read-out: ED50, Compound A

ED50 [1]: 0.011 mg/kg
Structure (SMILES): CC(C)(C)NCC(O)COc1ccccc1OCC(N)=O (stereo not shown) [Compound B, R^1 t-butyl, R^3 H, 1t-butylamino-3-(o-carbamoylmethoxyphenoxy)propan-2-ol]

ED50 [2]: 0.027 mg/kg
Structure (SMILES): C=CCNC(=O)COc1ccccc1OCC(O)CNC(C)(C)C (stereo not shown) [R^1 t-butyl, R^3 allyl, 1-t-butylamino-3-(o-N-allylcarbamoylmethoxyphenoxy)propan-2-ol]

ED50 [2]: 0.027 mg/kg
Structure (SMILES): COCCNC(=O)COc1ccccc1OCC(O)CNC(C)C (stereo not drawn) [R^1 isopropyl, R^3 2-methoxyethyl, 1-o-(N-β-methoxyethylcarbamoylmethoxy)phenoxy-3-isopropylamino-2-propanol]

ED50 [2]: 0.074 mg/kg
Structure (SMILES): CC(C)(C)NCC(O)COc1ccccc1OCC(=O)NCCCO (stereo not shown) [R^1 t-butyl, R^3 3-hydroxypropyl, 1-o-(N-γ-hydroxypropylcarbamoyl-methoxy)phenoxy-3-t-butylamino-2-propanol]

ED50 [2]: 0.03 mg/kg
Structure (SMILES): CNC(=O)COc1ccccc1OCC(O)CNC(C)(C)CO (stereo not shown)

ED50 [3]: 0.481 mg/kg
Structure (SMILES): CC(C)NCC(O)COc1ccccc1CC(N)=O (stereo not shown) [1-o-carbamoylmethylphenoxy-3-isopropylaminopropan-2-ol, reference compound]

ED50 [2]: 0.068 mg/kg
Structure (SMILES): CCNC(=O)COc1ccccc1OCC(O)CNC(C)C (stereo not shown) [R^1 isopropyl, R^3 ethyl, 1-isopropylamino-3-(o-N-ethylcarbamoylmethoxyphenoxy)propan-2-ol]

ED50 [3]: 0.058 mg/kg | ED50 [1]: 0.058 mg/kg
Structure (SMILES): CC(C)NCC(O)COc1ccccc1OCC(N)=O (stereo not shown) [Compound B, R^1 isopropyl, R^3 H, 1-isopropylamino-3-(o-carbamoylmethoxyphenoxy)propan-2-ol]

ED50 [4]: 0.136 mg/kg
Structure (SMILES): CC(C)(C)NCC(O)COc1ccc(CC(N)=O)cc1 (stereo not shown) [Compound A, R^1 t-butyl, R^2 H, reference compound]

ED50 [1]: 0.02 mg/kg
Structure (SMILES): CNC(=O)COc1ccccc1OCC(O)CNC(C)C (stereo not shown) [Compound B, R^1 isopropyl, R^3 methyl, 1-isopropylamino-3-(o-N-methylcarbamoylmethoxyphenoxy)propan-2-ol]

ED50 [3]: ~0.2 mg/kg
Structure (SMILES): CC(=O)Nc1ccc(OCC(O)CNC(C)C)cc1 (stereo not shown) [practolol, reference compound]

Structure (SMILES): CC(C)NCC(O)COc1ccc(CC(N)=O)cc1 (stereo not shown) [Compound A, R^1 isopropyl, R^2 H, reference compound]
ED50 (cat, read-out: ED50, Compound A): 0.096 mg/kg

ED50 [1]: 0.034 mg/kg
Structure (SMILES): C=CCNC(=O)COc1ccccc1OCC(O)CNC(C)C (stereo not shown) [Compound B, R^1 isopropyl, R^3 allyl, 1-isopropylamino-3-(o-N-allylcarbamoylmethoxyphenoxy)propan-2-ol]

ED50 [1]: 0.143 mg/kg
Structure (SMILES): CCCCNC(=O)COc1ccccc1OCC(O)CNC(C)C (stereo not shown) [Compound B, R^1 isopropyl, R^3 n-butyl]

ED50 [1]: 0.2 mg/kg
Structure (SMILES): CC(C)NCC(O)COc1ccccc1OCC(=O)NC(C)C (stereo not shown) [Compound B, R^1 isopropyl, R^3 isopropyl, 1-isopropylamino-3-(o-N-isopropylcarbamoylmethoxyphenoxy)propan-2-ol]

ED50 [2]: 0.047 mg/kg
Structure (SMILES): CC(C)NCC(O)COc1ccccc1OCC(=O)NCCCO (stereo not shown) [R^1 isopropyl, R^3 3-hydroxypropyl, 1-o-(N-γ-hydroxypropylcarbamoylmethoxy)phenoxy-3-isopropylamino-2-propanol]

ED50 [2]: 0.04 mg/kg
Structure (SMILES): CC(C)(C)NCC(O)COc1ccccc1OCC(=O)NCCO (stereo not drawn) [R^1 t-butyl, R^3 2-hydroxyethyl, 1-o-(N-β-hydroxyethylcarbamoylmethoxy)phenoxy-3-t-butylaminopropan-2-ol]

ED50 [4]: 1.47 mg/kg
Structure (SMILES): C=CCNC(=O)Cc1ccc(OCC(O)CNC(C)C)cc1 (stereo not shown) [Compound A, R^1 isopropyl, R^2 allyl, reference compound]

ED50 [4]: 0.606 mg/kg
Structure (SMILES): CCCCNC(=O)Cc1ccc(OCC(O)CNC(C)C)cc1 (stereo not shown) [Compound A, R^1 isopropyl, R^2 n-butyl, reference compound]

ED50 [2]: 0.014 mg/kg
Structure (SMILES): CNC(=O)COc1ccccc1OCC(O)CNC(C)(C)C (stereo not shown) [R^1 t-butyl, R^3 methyl, 1-t-butylamino-3-(o-N-methylcarbamoylmethoxyphenoxy)propan-2-ol]

ED50 [2]: 0.009 mg/kg
Structure (SMILES): CC(C)NCC(O)COc1ccccc1OCC(=O)NCCO (stereo not drawn) [R^1 isopropyl, R^3 2-hydroxyethyl, 1-o-(N-β-hydroxyethylcarbamoylmethoxy)phenoxy-3-isopropylamino-2-propanol]

ED50 [2]: 0.018 mg/kg
Structure (SMILES): CCNC(=O)COc1ccccc1OCC(O)CNC(C)(C)C (stereo not shown) [R^1 t-butyl, R^3 ethyl, 1-t-butylamino-3-(o-N-ethylcarbamoylmethoxyphenoxy)propan-2-ol]

ED50 [4]: 0.335 mg/kg
Structure (SMILES): CNC(=O)Cc1ccc(OCC(O)CNC(C)C)cc1 (stereo not shown) [Compound A, R^1 isopropyl, R^2 methyl, reference compound]

ED50 [4]: 0.225 mg/kg
Structure (SMILES): CC(C)NCC(O)COc1ccc(CC(=O)NC(C)C)cc1 (stereo not shown) [Compound A, R^1 isopropyl, R^2 isopropyl, reference compound]
